One data set addresses T1, P2X7 receptor (Homo sapiens, UniProt Q99572).
T1 construct: host or cells: THP-1 cells differentiated with LPS and IFN-γ
T1 sequence (Q99572 1-595): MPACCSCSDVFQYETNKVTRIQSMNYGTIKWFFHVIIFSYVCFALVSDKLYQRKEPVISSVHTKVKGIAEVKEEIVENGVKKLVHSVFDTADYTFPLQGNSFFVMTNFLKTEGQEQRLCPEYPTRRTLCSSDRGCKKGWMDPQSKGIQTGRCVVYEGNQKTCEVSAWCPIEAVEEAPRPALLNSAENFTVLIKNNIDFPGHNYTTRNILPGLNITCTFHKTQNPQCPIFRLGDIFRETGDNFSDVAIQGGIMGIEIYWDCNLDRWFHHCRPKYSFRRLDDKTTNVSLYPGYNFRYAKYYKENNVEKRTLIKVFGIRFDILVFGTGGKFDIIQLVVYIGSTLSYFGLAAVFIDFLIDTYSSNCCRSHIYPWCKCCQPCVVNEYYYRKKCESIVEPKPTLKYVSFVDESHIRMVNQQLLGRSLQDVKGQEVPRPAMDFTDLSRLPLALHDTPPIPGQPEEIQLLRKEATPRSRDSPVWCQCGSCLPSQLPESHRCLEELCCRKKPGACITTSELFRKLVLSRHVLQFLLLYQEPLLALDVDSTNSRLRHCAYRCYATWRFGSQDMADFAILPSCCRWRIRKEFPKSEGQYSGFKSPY
Description: IL-1β release assay in differentiated THP-1 cells (Example 9). Format: cell-based. The conditions noted are these: THP-1 cells differentiated with LPS and IFN-γ; 30 min pretreatment; BzATP 250 uM; IL-1β by ELISA. The procedure: THP-1 cells (ATCC Cat #285-IF-100) are plated in 96 well plates at a concentration of 200,000 cells per well and allowed to differentiate in RPMI-1640 media (ATCC Cat #30-2001) containing 10% FBS, 100 IU/mL penicillin, 100 ug/mL streptomycin, 100 ng/mL LPS and 100 ng/mL IFN-γ for 16 hours. Following differentiation, the cells are treated for an additional 2 hours in RPMI-1640 media containing 100 IU/mL penicillin, 100 ug/mL streptomycin and fresh LPS at 100 ng/mL. The cells are then pretreated for 30 minutes with the compound of interest at the appropriate concentration in RPMI media containing 100 IU/mL penicillin, 100 ug/mL streptomycin. Following the pretreatment 2′,3′-O-(4-benzoylbenzoyl)-adenosine 5′-triphosphate (Sigma Aldrich Cat # B6396) is added to a final concentration of 250 uM, and the cells are incubated for an additional 45 minutes. 30 uL of cell supernatant is then collected and IL-1β levels are determined via ELISA (R&D systems Cat. # HSLB50) according to manufacturer's recommendations using a Tecan Safire plate reader. Background adjusted IL-1β levels of drug treated and non-treated cells are used to calculate the percent inhibition.
The following compounds have been or can be prepared according to the synthetic methods described herein for example, methods A-AA1. The compounds set forth in Table 1 were tested for activity in a cellular model as described herein. Specifically, cells were pretreated with differing amounts of the compound under test and released IL-1β determined as in Example 9, above. Measurements were made and IC50 values, presented in Table 1, below, were determined by fitting the data to a four parameter logistic equation using GraphPad Prism software (GraphPad Software, Inc). The equation may be expressed by the following formula: Y=Bottom+(Top−Bottom)/(1+10^((Log EC50−X)*HillSlope)) where X is the logarithm of concentration, Y is the response and Y starts at Bottom and goes to Top with a sigmoid shape.
(In general: ELISA stands for enzyme-linked immunosorbent assay.)

A short description of data set [1]: Half-life in human liver microsomes (HLM). The settings on record: human liver microsomes 0.78 mg/mL, 1 μM compound, NADPH, 37° C.; for half-life at 1 μM: pH 7.4. The class given is in vitro ADME. (In general: Liver microsomes are vesicles of endoplasmic reticulum, rich in cytochrome P450 enzymes.)
Description: Half-Life in Human Liver Microsomes (HLM)
Test compounds (1 μM) are incubated with 3.3 mM MgCl2 and 0.78 mg/mL HLM (HL101) in 100 mM potassium phosphate buffer (pH 7.4) at 37° C. on the 96-deep well plate. The reaction mixture is split into two groups, a non-P450 and a P450 group. NADPH is only added to the reaction mixture of the P450 group. An aliquot of samples of P450 group is collected at 0, 10, 30, and 60 min time point, where 0 min time point indicated the time when NADPH is added into the reaction mixture of P450 group. […] Collected aliquots are extracted with acetonitrile solution containing an internal standard. […] The compound concentration in supernatant is measured by LC/MS/MS system.
The half-life value is obtained by plotting the natural logarithm of the peak area ratio of compounds/internal standard versus time. The slope of the line of best fit through the points yields the rate of metabolism (k). This is converted to a half-life value using following equations: Half-life=ln 2/k
The nature of data set [2]: Plasma protein binding by equilibrium dialysis, human plasma. The class given is in vitro ADME. The conditions noted are these: pH 7.4, equilibrium dialysis 16 hr at 37° C., % Bound. The procedure:
The plasma protein binding of compounds of invention is measured in human and rat plasma, respectively. A stock solution of the tested compound is prepared in 1 mg/mL in DMSO solution. The stock solution is spiked into the blank plasma to get a final compound concentration at 1 μg/mL for testing. Equilibrium dialysis (The equilibrium dialyzer-96TM MWCO 5K Daltons, Harvard Apparatus) method is used for the testing purpose.
The compound spiked plasma (at […]) and phosphate buffer (0.1 M, pH 7.4), 200 μl each, are added into the opposite sides of the membrane in a 96-well equilibrium dialyzer, respectively. The dialyzer plate is covered and incubated overnight (16 hr) at 37° C. in the 8-plate rotor incubator (Big Shot III 8-plate rotor, Harvard Apparatus). Aliquots (100 μL) are taken from the plasma and the buffer compartments, respectively. The matrix effects are eliminated by adding the same volume of blank plasma into the samples from buffer compartments and adding the same volume of phosphate buffer into the samples from plasma compartments. The samples are extracted by using the regular (3:1) protein precipitation extraction procedure (acetonitrile with internal standard). The supernatants are taken for LC/MS/MS analysis. The percentage of plasma-protein binding can be calculated by using the following method: % Free=[Free Drug/Total Drug]*100=[(Peak Area)buffer/(Peak Area)plasma]*100 % Bound=100−% Free.
For the purpose of Table 4, the plasma protein binding of each compound is expressed as follows: […]

For orientation: IC50 means the concentration that inhibits the measured activity by half. As usually defined, the fraction unbound is free concentration divided by total concentration. Read a low fraction unbound as little free substance. By half-life is commonly meant how long it takes for the measured level to halve. Higher therefore signals slow decline.

For the compound `C[C@H](C(N)=O)n1ccc2c(NC(=O)Cc3ccc(C(F)(F)F)cc3)c(Cl)ccc2c1=O` [Compound 3, (R)-2-{6-Chloro-1-oxo-5-[2-(4-trifluoromethyl-phenyl)-acetylamino]-1H-isoquinolin-2-yl}-propionamide], the IC50 at P2X7 receptor amounted to 2 nM. For the same compound, the “Half Life” value in data set [1] was 3.3 h.

Consider `C[C@H](CO)n1ccc2c(NC(=O)Cc3ccc(Cl)c(F)c3)c(Cl)ccc2c1=O` [Compound 15, 2-(4-Chloro-3-fluoro-phenyl)-N-[6-chloro-2-((R)-2-hydroxy-1-methyl-ethyl)-1-oxo-1,2-dihydro-isoquinolin-5-yl]-acetamide], for which, at P2X7 receptor, the IC50 amounted to 6 nM. Further, in data set [1], the “Half Life” value stood at 1.3 h.

Turning to `Cc1ccc2c(=O)n([C@H](C)CO)ccc2c1NC(=O)Cc1ccc(F)c(C(F)(F)F)c1` [Compound 22, 2-(4-Fluoro-3-trifluoromethyl-phenyl)-N-[2-((R)-2-hydroxy-1-methyl-ethyl)-6-methyl-1-oxo-1,2-dihydro-isoquinolin-5-yl]-acetamide], the IC50 at P2X7 receptor came out at 0.7 nM. The fraction unbound at 16 hr, 1 μg/mL in data set [2] was less than 0.1.

Take `C[C@H](CO)n1ccc2c(C(=O)NCc3cccc(C(F)(F)F)c3)c(Cl)ccc2c1=O` [Compound 44, 6-Chloro-2-((R)-2-hydroxy-1-methyl-ethyl)-1-oxo-1,2-dihydro-isoquinoline-5-carboxylic acid 3-trifluoromethyl-benzylamide]: on P2X7 receptor, the concentration for half-maximal inhibition (IC50) was determined as 10 nM. Besides, in data set [1], the half-life at 1 μM is 66 min.

Take `C[C@H](CO)n1ccc2c(C(=O)NCc3ccc(Cl)c(F)c3)c(Cl)ccc2c1=O` [Compound 45, 6-Chloro-2-((R)-2-hydroxy-1-methyl-ethyl)-1-oxo-1,2-dihydro-isoquinoline-5-carboxylic acid 4-chloro-3-fluoro-benzylamide]: the half-inhibitory concentration (IC50) at P2X7 receptor amounted to 13 nM. The compound further had a half-life at 1 μM in data set [1] of 96 min.

Regarding `C[C@H](CO)n1ccc2c(C(=O)NCC3(O)CCCCCC3)c(Cl)ccc2c1=O` [Compound 47, 6-Chloro-2-((R)-2-hydroxy-1-methyl-ethyl)-1-oxo-1,2-dihydro-isoquinoline-5-carboxylic acid (1-hydroxy-cycloheptylmethyl)-amide], on P2X7 receptor, the IC50 was determined as 0.8 nM. The compound further showed a half-life at 1 μM in data set [1] of 24 min.

Take `Cc1ccc2c(=O)n([C@H](C)CO)ccc2c1C(=O)NCC1(O)CCCCCC1` [Compound 52, 2-((R)-2-Hydroxy-1-methyl-ethyl)-6-methyl-1-oxo-1,2-dihydro-isoquinoline-5-carboxylic acid (1-hydroxy-cycloheptylmethyl)-amide]: the half-inhibitory concentration (IC50) on P2X7 receptor was 4 nM.

In the case of `C[C@H](CO)n1ccc2c(C(=O)NCC3(O)CC4CCC3C4)c(Cl)ccc2c1=O` (stereo partly drawn) [Compound 53, 6-Chloro-2-((R)-2-hydroxy-1-methyl-ethyl)-1-oxo-1,2-dihydro-isoquinoline-5-carboxylic acid (2-hydroxy-bicyclo[2.2.1]hept-2-ylmethyl)-amide], at P2X7 receptor, the IC50 came out at 532 nM.

In the case of `C[C@H](CO)n1ccc2c(C(=O)NCC3(O)CCC(C)(C)CC3)c(Cl)ccc2c1=O` [Compound 54, (R)-6-chloro-N-((1-hydroxy-4,4-dimethylcyclohexyl)methyl)-2-(1-hydroxypropan-2-yl)-1-oxo-1,2-dihydroisoquinoline-5-carboxamide], the half-maximal inhibitory concentration (IC50) on P2X7 receptor was found to be 1 nM. The compound further gave a half-life at 1 μM in data set [1] of 18 min.

Consider `C[C@H](CO)n1ccc2c(C(=O)NCC3(O)CCCC(C)(C)C3)c(Cl)ccc2c1=O` (stereo partly drawn) [Compound 55, 6-Chloro-2-((R)-2-hydroxy-1-methyl-ethyl)-1-oxo-1,2-dihydro-isoquinoline-5-carboxylic acid(1-hydroxy-3,3-dimethyl-cyclohexylmethyl)-amide], for which the IC50 at P2X7 receptor turned out to be 1 nM.

As for `C[C@H](CO)n1ccc2c(C(=O)NCC3(O)CCCCC3)c(Cl)ccc2c1=O` [Compound 57, 6-Chloro-2-((R)-2-hydroxy-1-methyl-ethyl)-1-oxo-1,2-dihydro-isoquinoline-5-carboxylic acid (1-hydroxy-cyclohexylmethyl)-amide], the IC50 at P2X7 receptor came to 5 nM.

As for `Cc1ccc2c(=O)n([C@H](C)CN)ccc2c1NC(=O)Cc1ccc(C(F)(F)F)c(F)c1` [Compound 58, N-[2-((R)-2-Amino-1-methyl-ethyl)-6-methyl-1-oxo-1,2-dihydro-isoquinolin-5-yl]-2-(3-fluoro-4-trifluoromethyl-phenyl)-acetamide], the IC50 at P2X7 receptor is 0.01 nM.

With `CNC[C@@H](C)n1ccc2c(NC(=O)Cc3ccc(C(F)(F)F)c(F)c3)c(C)ccc2c1=O` [Compound 59, 2-(3-Fluoro-4-trifluoromethyl-phenyl)-N-[6-methyl-2-((R)-1-methyl-2-methylamino-ethyl)-1-oxo-1,2-dihydro-isoquinolin-5-yl]-acetamide], at P2X7 receptor, the concentration for half-maximal inhibition (IC50) was found to be 2 nM.

Turning to `Cc1ccc2c(=O)n([C@H](C)CN3CCNCC3)ccc2c1NC(=O)Cc1ccc(C(F)(F)F)c(F)c1` [Compound 60, 2-(3-Fluoro-4-trifluoromethyl-phenyl)-N-[6-methyl-2-((R)-1-methyl-2-piperazin-1-yl-ethyl)-1-oxo-1,2-dihydro-isoquinolin-5-yl]-acetamide], the IC50 on P2X7 receptor turned out to be 1 nM.

For the compound `C[C@H](CO)n1ccc2c(C(=O)NCC3CCC(F)(F)CC3)c(Cl)ccc2c1=O` [Compound 61, (R)-6-Chloro-N-((4,4-difluorocyclohexyl)methyl)-2-(1-hydroxypropan-2-yl)-1-oxo-1,2-dihydroisoquinoline-5-carboxamide], at P2X7 receptor, the IC50 was 5 nM. This compound also registered a free fraction (fraction unbound) at 16 hr, 1 μg/mL in data set [2] of 0.1 to 0.24.

On to `Cc1ccc2c(=O)n(C(CO)CO)ccc2c1NC(=O)Cc1ccc(C(F)(F)F)c(F)c1` [Compound 62, 2-(3-Fluoro-4-trifluoromethyl-phenyl)-N-[2-(2-hydroxy-1-hydroxymethyl-ethyl)-6-methyl-1-oxo-1,2-dihydro-isoquinolin-5-yl]-acetamide], for which the 50% inhibitory concentration (IC50) on P2X7 receptor came out at 30 nM.

As to `C[C@H](CO)n1ccc2c(C(=O)NCC3(O)CCC4(CC3)CC4)c(Cl)ccc2c1=O` [Compound 63, 6-Chloro-2-((R)-1-hydroxypropan-2-yl)-N-((6-hydroxyspiro[2.5]octan-6-yl)methyl)-1-oxo-1,2-dihydroisoquinoline-5-carboxamide], the IC50 on P2X7 receptor was 0.6 nM. The compound further yielded a fraction unbound at 16 hr, 1 μg/mL in data set [2] of 0.25 to 0.49.

`Cc1ccc2c(=O)n([C@H](C)CN3CC[C@H](N)C3)ccc2c1NC(=O)Cc1ccc(C(F)(F)F)c(F)c1` [Compound 66]: at P2X7 receptor, the half-inhibitory concentration (IC50) is 5 nM.

As to `C[C@H](CO)n1ccc2c(C(=O)NCC3(O)CCC(F)CC3)c(Cl)ccc2c1=O` (stereo partly shown) [Compound 69], the IC50 on P2X7 receptor worked out at 6 nM.

Values taken from patent publication US8093265B2, “Bicycloheteroaryl compounds as P2X7 modulators and uses thereof” (Renovis, Inc., priority 2007, dated 2012).
